Among the data in ChEMBL document CHEMBL1145379 (J Med Chem, 2007) are Activity and Ki values, retold here.

Structures are written as SMILES.

For one test, the system named is Plasma. Nature of the test: Anticoagulant potency in human plasma assessed as concentration for doubling of prothrombin time. In kind it is functional.
The target of another test is Coagulation factor X (Homo sapiens, UniProt P00742). The test can be described thus: Inhibition of human F10a. The note with it: read-out: Ki app.
Another test has as its target Prothrombin (Homo sapiens, UniProt P00734). Nature of the test: Inhibition of human F2a. The settings on record: read-out: Ki app.

Chain of Coagulation factor X (P00742 41-179 limits assumed): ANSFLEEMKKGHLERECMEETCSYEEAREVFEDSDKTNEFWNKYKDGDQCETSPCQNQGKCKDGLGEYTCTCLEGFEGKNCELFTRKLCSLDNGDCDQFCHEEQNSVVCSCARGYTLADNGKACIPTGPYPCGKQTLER
Chain of Coagulation factor X (P00742 235-488 limits assumed): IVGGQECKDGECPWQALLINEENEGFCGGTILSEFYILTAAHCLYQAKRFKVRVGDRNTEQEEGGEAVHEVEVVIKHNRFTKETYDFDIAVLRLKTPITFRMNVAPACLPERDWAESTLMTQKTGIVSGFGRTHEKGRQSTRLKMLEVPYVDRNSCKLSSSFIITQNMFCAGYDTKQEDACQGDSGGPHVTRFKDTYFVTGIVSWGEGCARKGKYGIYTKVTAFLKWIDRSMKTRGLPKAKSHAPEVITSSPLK

In the case of `COc1cc(Cl)cc(C(=O)Nc2ccc(Cl)cn2)c1NC(=O)c1scc(Cn2ccnc2)c1Cl`, the Activity with Plasma stood at 2 µM. Also, the figures for the Ki at Coagulation factor X and at Prothrombin were 0.022 nM and 510 nM, respectively.

For `COc1cc(Cl)cc(C(=O)Nc2ccc(Cl)cn2)c1NC(=O)c1scc(CN2CCN=C2SC)c1Cl`, the Activity with Plasma was found to be 0.53 µM. Also, the results for the Ki at Coagulation factor X and at Prothrombin were 0.004 nM and 2200 nM, respectively.

With `COc1cc(Cl)cc(C(=O)Nc2ccc(Cl)cn2)c1NC(=O)c1scc(CN(C)c2ncc[nH]2)c1Cl`, in the test on Plasma, the Activity is 1.8 µM. In addition, the results for the Ki at Coagulation factor X and at Prothrombin were 0.02 nM and 860 nM, respectively.

For the compound `COc1cc(Cl)cc(C(=O)Nc2ccc(Cl)cn2)c1NC(=O)c1scc(CN(C)C2=NC(=O)CO2)c1Cl`, the Activity with Plasma was 2.2 µM. For the same compound, the Ki on Coagulation factor X amounted to 0.026 nM; at Prothrombin it was 90 nM.

As for `COc1cc(Cl)cc(C(=O)Nc2ccc(Cl)cn2)c1NC(=O)c1scc(CN2C=NCC2)c1Cl`, the Activity in the test on Plasma was 0.26 µM. The Ki came to 0.004 nM at Coagulation factor X and 3300 nM at Prothrombin.

`COc1cc(Cl)cc(C(=O)Nc2ccc(Cl)cn2)c1NC(=O)c1scc(CN2CCN=C2C)c1Cl`: the Activity in the test on Plasma was 0.32 µM. Moreover, the Ki on Coagulation factor X was ≤ 0.01 nM; on Prothrombin, 3300 nM.

In the case of `COc1cc(Cl)cc(C(=O)Nc2ccc(Cl)cn2)c1NC(=O)c1scc(CN(C)C(=O)NCCN2CCCC2)c1Cl`, the Activity in the test on Plasma was determined as 1.1 µM. Further, the Ki was 0.036 nM at Coagulation factor X and 140 nM at Prothrombin.

As for `COc1cc(Cl)cc(C(=O)Nc2ccc(Cl)cn2)c1NC(=O)c1scc(Cn2ccnc2C)c1Cl`, in the test on Plasma, the Activity was 1.4 µM. In addition, the Ki on Coagulation factor X is ≤ 0.01 nM; on Prothrombin, 440 nM.

As for `COc1cc(Cl)cc(C(=O)Nc2ccc(Cl)cn2)c1NC(=O)c1scc(CN2CCOCC2)c1Cl`, the Activity in the test on Plasma is 4.9 µM. The Ki is 1.4 nM at Coagulation factor X and 1400 nM at Prothrombin.

On to `COc1cc(Cl)cc(C(=O)Nc2ccc(Cl)cn2)c1NC(=O)c1scc(CN(C2=NCCO2)C(C)(C)C)c1Cl`, for which the Ki came out at 0.12 nM on Coagulation factor X and 1700 nM on Prothrombin.

`COc1cc(Cl)cc(C(=O)Nc2ccc(Cl)cn2)c1NC(=O)c1scc(CN(C)CCCO)c1Cl`: the Activity with Plasma stood at 1.5 µM. Also, the Ki came out at 0.18 nM on Coagulation factor X and 1100 nM at Prothrombin.

For `CCN(CC)Cc1csc(C(=O)Nc2c(OC)cc(Cl)cc2C(=O)Nc2ccc(Cl)cn2)c1Cl`, the Activity in the test with Plasma amounted to 2.4 µM. The Ki worked out at 0.32 nM on Coagulation factor X and 1500 nM at Prothrombin.

For the compound `COc1cc(Cl)cc(C(=O)Nc2ccc(Cl)cn2)c1NC(=O)c1scc(CN(C)C(C)=N)c1Cl`, the Activity with Plasma was 0.25 µM. Besides, the Ki on Coagulation factor X is ≤ 0.01 nM; at Prothrombin, 920 nM.

Regarding `CCN(Cc1csc(C(=O)Nc2c(OC)cc(Cl)cc2C(=O)Nc2ccc(Cl)cn2)c1Cl)C1=NCCO1`, the Activity with Plasma is 0.57 µM. Also, the Ki on Coagulation factor X stood at 0.012 nM; at Prothrombin, 470 nM.

Take `COc1cc(Cl)cc(C(=O)Nc2ccc(Cl)cn2)c1NC(=O)c1scc(CN(C)C2=NCCCO2)c1Cl`: the Activity with Plasma stood at 0.22 µM. In addition, the Ki on Coagulation factor X turned out to be 0.012 nM; on Prothrombin it was 160 nM.

`COc1cc(Cl)cc(C(=O)Nc2ccc(Cl)cn2)c1NC(=O)c1scc(Cn2ccnc2N)c1Cl`: in the test on Plasma, the Activity is 0.77 µM. Besides, the results for the Ki on Coagulation factor X and on Prothrombin were 0.006 nM and 3500 nM, respectively.

Regarding `COc1cc(Cl)cc(C(=O)Nc2ccc(Cl)cn2)c1NC(=O)c1scc(CN2CCC(O)CC2)c1Cl`, in the test on Plasma, the Activity is 3.2 µM. Further, the Ki at Coagulation factor X was found to be 2.2 nM; at Prothrombin, 770 nM.

Take `CCNC(=O)N(C)Cc1csc(C(=O)Nc2c(OC)cc(Cl)cc2C(=O)Nc2ccc(Cl)cn2)c1Cl`: in the test with Plasma, the Activity was found to be 5.8 µM. In addition, the Ki on Coagulation factor X came out at 0.02 nM; on Prothrombin it was 450 nM.

As for `COc1cc(Cl)cc(C(=O)Nc2ccc(Cl)cn2)c1NC(=O)c1scc(CN(C)CC(C)O)c1Cl` (centres undefined), the Activity in the test on Plasma is 1.5 µM. The Ki turned out to be 0.4 nM at Coagulation factor X and 2100 nM on Prothrombin.

Regarding `COc1cc(Cl)cc(C(=O)Nc2ccc(Cl)cn2)c1NC(=O)c1scc(CN(C)C2=NCCC2)c1Cl`, in the test on Plasma, the Activity came out at 0.4 µM. The Ki came to 0.004 nM on Coagulation factor X and 970 nM on Prothrombin.

With `COc1cc(Cl)cc(C(=O)Nc2ccc(Cl)cn2)c1NC(=O)c1scc(CN(CC(F)(F)F)C2=NCCO2)c1Cl`, the Activity with Plasma worked out at 28 µM. The Ki on Coagulation factor X was 2.2 nM; on Prothrombin, > 5000 nM.

With `CCNc1nccn1Cc1csc(C(=O)Nc2c(OC)cc(Cl)cc2C(=O)Nc2ccc(Cl)cn2)c1Cl`, in the test on Plasma, the Activity was 1.8 µM. The Ki on Coagulation factor X came to 0.005 nM; on Prothrombin, 1100 nM.

As to `COc1cc(Cl)cc(C(=O)Nc2ccc(Cl)cn2)c1NC(=O)c1scc(CN(C)c2ncco2)c1Cl`, the Activity in the test with Plasma was 4.2 µM. Moreover, the Ki is 0.059 nM at Coagulation factor X and 60 nM at Prothrombin.

For `COc1cc(Cl)cc(C(=O)Nc2ccc(Cl)cn2)c1NC(=O)c1scc(CN(C)C(N)=O)c1Cl`, in the test with Plasma, the Activity was 2.6 µM. The Ki was 0.026 nM on Coagulation factor X and 340 nM on Prothrombin.

Take `COc1cc(Cl)cc(C(=O)Nc2ccc(Cl)cn2)c1NC(=O)c1scc(CN2CCCC2)c1Cl`: in the test on Plasma, the Activity is 1.6 µM. Moreover, the Ki on Coagulation factor X is 0.52 nM; on Prothrombin it was 1400 nM.

As to `COc1cc(Cl)cc(C(=O)Nc2ccc(Cl)cn2)c1NC(=O)c1scc(CN(C)CC(O)CO)c1Cl` (centres undefined), the Activity with Plasma is 3.2 µM. For the same compound, the results for the Ki at Coagulation factor X and at Prothrombin were 0.26 nM and 1200 nM, respectively.

`COCCN(Cc1csc(C(=O)Nc2c(OC)cc(Cl)cc2C(=O)Nc2ccc(Cl)cn2)c1Cl)C1=NCCO1`: the Activity in the test with Plasma is 1.1 µM. Further, the values for the Ki at Coagulation factor X and at Prothrombin were 0.26 nM and 2000 nM, respectively.

For the compound `COc1cc(Cl)cc(C(=O)Nc2ccc(Cl)cn2)c1NC(=O)c1scc(CN(C)CCCN(C)C)c1Cl`, the Activity in the test on Plasma was 0.24 µM. The results for the Ki at Coagulation factor X and on Prothrombin were 0.024 nM and 300 nM, respectively.

With `COc1cc(Cl)cc(C(=O)Nc2ccc(Cl)cn2)c1NC(=O)c1scc(Cn2ccnc2NC(C)C)c1Cl`, in the test on Plasma, the Activity is 2.3 µM. Also, the Ki came to 0.008 nM at Coagulation factor X and 1200 nM on Prothrombin.

On to `COc1cc(Cl)cc(C(=O)Nc2ccc(Cl)cn2)c1NC(=O)c1scc(CN2CCNC2=N)c1Cl`, for which the Activity in the test on Plasma worked out at 0.27 µM. In addition, the Ki on Coagulation factor X was ≤ 0.01 nM; on Prothrombin it was 1500 nM.

Regarding `COc1cc(Cl)cc(C(=O)Nc2ccc(Cl)cn2)c1NC(=O)c1scc(CN(C)C(=O)NCCC(=O)O)c1Cl`, in the test with Plasma, the Activity was determined as 7 µM. Also, the Ki at Coagulation factor X is 0.022 nM; on Prothrombin, 630 nM.

On to `CCN(C)Cc1csc(C(=O)Nc2c(OC)cc(Cl)cc2C(=O)Nc2ccc(Cl)cn2)c1Cl`, for which the Activity with Plasma is 1.4 µM. The figures for the Ki on Coagulation factor X and on Prothrombin were 0.22 nM and 1700 nM, respectively.

Turning to `COc1cc(Cl)cc(C(=O)Nc2ccc(Cl)cn2)c1NC(=O)c1scc(CN2CCSC2=N)c1Cl`, the Activity in the test with Plasma was 1.4 µM. In addition, the Ki at Coagulation factor X is ≤ 0.01 nM; on Prothrombin, 2600 nM.

As to `COc1cc(Cl)cc(C(=O)Nc2ccc(Cl)cn2)c1NC(=O)c1scc(CN(C)CC(C)(C)O)c1Cl`, in the test with Plasma, the Activity came to 5.3 µM. Moreover, the Ki at Coagulation factor X was determined as 0.71 nM; on Prothrombin it was 1100 nM.

For `CCN(Cc1csc(C(=O)Nc2c(OC)cc(Cl)cc2C(=O)Nc2ccc(Cl)cn2)c1Cl)C1=NC(C)CO1` (centres undefined), the Activity in the test with Plasma stood at 3.8 µM. Further, the Ki at Coagulation factor X stood at 0.031 nM; at Prothrombin, 580 nM.

Turning to `COc1cc(Cl)cc(C(=O)Nc2ccc(Cl)cn2)c1NC(=O)c1scc(CNC(C)C)c1Cl`, the figures for the Ki on Coagulation factor X and at Prothrombin were 1.4 nM and 5400 nM, respectively.

Take `COc1cc(Cl)cc(C(=O)Nc2ccc(Cl)cn2)c1NC(=O)c1scc(CN(C)S(C)(=O)=O)c1Cl`: in the test with Plasma, the Activity turned out to be 2.2 µM. The results for the Ki on Coagulation factor X and at Prothrombin were 0.045 nM and 340 nM, respectively.

On to `COc1cc(Cl)cc(C(=O)Nc2ccc(Cl)cn2)c1NC(=O)c1scc(CN(C)C(=N)N)c1Cl`, for which the Activity in the test on Plasma is 0.4 µM. For the same compound, the Ki at Coagulation factor X is ≤ 0.01 nM; at Prothrombin it was 630 nM.

As for `COc1cc(Cl)cc(C(=O)Nc2ccc(Cl)cn2)c1NC(=O)c1scc(CN)c1Cl`, the Activity in the test on Plasma came to 4.2 µM. The Ki on Coagulation factor X was 1 nM; on Prothrombin, > 5000 nM.

In the case of `CCNCc1csc(C(=O)Nc2c(OC)cc(Cl)cc2C(=O)Nc2ccc(Cl)cn2)c1Cl`, the Activity in the test on Plasma came out at 2.2 µM. The Ki at Coagulation factor X turned out to be 0.4 nM; on Prothrombin, 2600 nM.

With `COc1cc(Cl)cc(C(=O)Nc2ccc(Cl)cn2)c1NC(=O)c1scc(CN(C)CCN2CCCC2)c1Cl`, the Activity in the test on Plasma stood at 0.24 µM. Also, the values for the Ki at Coagulation factor X and at Prothrombin were 0.019 nM and 190 nM, respectively.

For the compound `COc1cc(Cl)cc(C(=O)Nc2ccc(Cl)cn2)c1NC(=O)c1scc(CN2CC(=O)NC2=N)c1Cl`, the Activity in the test on Plasma turned out to be 3.3 µM. Further, the Ki is 0.034 nM at Coagulation factor X and 340 nM on Prothrombin.

As for `COc1cc(Cl)cc(C(=O)Nc2ccc(Cl)cn2)c1NC(=O)c1scc(CN(C)C2=NCC(C)O2)c1Cl` (centres undefined), in the test on Plasma, the Activity was determined as 1.2 µM. For the same compound, the Ki at Coagulation factor X was determined as 0.12 nM; on Prothrombin, 410 nM.

On to `COc1cc(Cl)cc(C(=O)Nc2ccc(Cl)cc2)c1NC(=O)c1scc(CN2CCN(C)CC2)c1Cl`, for which the Activity with Plasma was determined as 4.2 µM. Further, the Ki on Coagulation factor X was determined as 0.43 nM; on Prothrombin it was 1300 nM.

Turning to `COc1cc(Cl)cc(C(=O)Nc2ccc(Cl)cn2)c1NC(=O)c1scc(CN2CCOC2=N)c1Cl`, the Activity in the test with Plasma turned out to be 0.26 µM. Moreover, the Ki is ≤ 0.01 nM on Coagulation factor X and 1100 nM at Prothrombin.

`COc1cc(Cl)cc(C(=O)Nc2ccc(Cl)cn2)c1NC(=O)c1scc(CN(C)C(=O)NCCO)c1Cl`: the Activity in the test with Plasma came out at 4.1 µM. Further, the Ki turned out to be 0.05 nM at Coagulation factor X and 360 nM at Prothrombin.

As to `COc1cc(Cl)cc(C(=O)Nc2ccc(Cl)cn2)c1NC(=O)c1scc(CN(C)C2=NCCS2)c1Cl`, the Activity with Plasma was 1.8 µM. For the same compound, the Ki on Coagulation factor X was found to be 0.024 nM; at Prothrombin, 100 nM.
